Source: ChEMBL document CHEMBL1154336, “The discovery and optimisation of benzazepine sulfonamide and sulfones as potent agonists of the motilin receptor” (Bioorg Med Chem Lett, 2009)
Converted amounts (≈) assume the structure as drawn.

What was measured:
Cytochrome P450 2C9 = Cytochrome P450 2C9 (Homo sapiens, UniProt P11712); experiment: Inhibition of human recombinant CYP2C9; format: ADME
Cytochrome P450 2D6 = Cytochrome P450 2D6 (Homo sapiens, UniProt P10635); experiment: Inhibition of human recombinant CYP2D6; format: ADME
Motilin receptor = Motilin receptor (Homo sapiens, UniProt O43193); experiment: Agonist activity at human recombinant motilin receptor expressed in CHO cells by FLIPR assay; format: functional, cell-based
[1] = target: T1, Growth hormone secretagogue receptor type 1 (Homo sapiens, UniProt Q92847); experiment: Agonist activity at human ghrelin receptor; format: functional
[2] = target: T1, Growth hormone secretagogue receptor type 1; experiment: Intrinsic activity at human ghrelin receptor relative to ghrelin
D(3) dopamine receptor = D(3) dopamine receptor (Homo sapiens, UniProt P35462); experiment: Agonist activity at dopamine D3 receptor; format: functional
[3] = target: 5-hydroxytryptamine receptor 6 (Homo sapiens, UniProt P50406); experiment: Agonist activity at 5HT6 receptor; format: functional
D(2) dopamine receptor = D(2) dopamine receptor (Homo sapiens, UniProt P14416); experiment: Agonist activity at dopamine D2 receptor; format: functional
Liver microsomes [4] = experiment: Intrinsic clearance in rat liver microsomes after 30 mins; format: ADME, Microsome; conditions: 0.5 h
Liver microsomes [5] = experiment: Intrinsic clearance in human liver microsomes after 30 mins; format: ADME, Microsome; conditions: 0.5 h
Cytochrome P450 3A4 [6] = target: T2, Cytochrome P450 3A4 (Homo sapiens, UniProt P08684); experiment: Inhibition of human recombinant CYP3A4 using 7-{3-(4-phenylpiperazin-1-ylmethyl)benzyl}resorufin as substrate; format: ADME
Cytochrome P450 3A4 [7] = target: T2, Cytochrome P450 3A4; experiment: Inhibition of human recombinant CYP3A4 using diethoxyfluorescein as substrate; format: ADME
Stomach [8] = experiment: Increase in electric field stimulated contractile response in New Zealand White rabbit gastric antrum at 3 uM after 60 mins; format: functional; conditions: Oryctolagus cuniculus, 1 h
Stomach [9] = experiment: Increase in electric field stimulated contractile response in New Zealand White rabbit gastric antrum at 1 uM after 60 mins; format: functional; conditions: Oryctolagus cuniculus, 1 h
[10] = target: Voltage-gated inwardly rectifying potassium channel KCNH2 (Homo sapiens, UniProt Q12809); experiment: Inhibition of human ERG
Cytochrome P450 1A2 = target: T3, Cytochrome P450 1A2 (Homo sapiens, UniProt P05177); experiment: Inhibition of human recombinant CYP1A2; format: ADME
T3 sequence (P05177 whole entry): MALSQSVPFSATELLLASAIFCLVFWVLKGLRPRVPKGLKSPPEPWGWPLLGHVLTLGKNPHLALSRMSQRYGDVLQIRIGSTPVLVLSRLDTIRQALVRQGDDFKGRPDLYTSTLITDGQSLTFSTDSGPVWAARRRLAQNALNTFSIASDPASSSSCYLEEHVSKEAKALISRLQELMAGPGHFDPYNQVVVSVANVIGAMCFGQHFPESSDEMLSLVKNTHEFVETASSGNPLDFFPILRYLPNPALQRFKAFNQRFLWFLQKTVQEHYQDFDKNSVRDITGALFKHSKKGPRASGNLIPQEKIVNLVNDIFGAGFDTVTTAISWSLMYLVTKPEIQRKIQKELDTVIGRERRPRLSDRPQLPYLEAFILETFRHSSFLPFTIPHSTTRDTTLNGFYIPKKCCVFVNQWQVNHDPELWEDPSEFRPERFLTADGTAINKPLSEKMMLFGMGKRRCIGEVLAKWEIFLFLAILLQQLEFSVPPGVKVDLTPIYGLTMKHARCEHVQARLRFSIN

Cytochrome P450 2C19 = Cytochrome P450 2C19 (Homo sapiens, UniProt P33261); experiment: Inhibition of human recombinant CYP2C19; format: ADME
[11] = Aqueous solubility at pH 7.4; format: physicochemical
[12] = Tmax in mouse at 10 mg/kg, po; format: ADME, organism-based; parameters: dose 10 mg/kg, route oral; conditions: in vivo
[13] = Cmax in mouse at 10 mg/kg, po; format: ADME, organism-based; parameters: dose 10 mg/kg, route oral; conditions: in vivo
[14] = Half life in mouse at 10 mg/kg, po; format: ADME, organism-based; parameters: dose 10 mg/kg, route oral; conditions: in vivo

5-hydroxytryptamine receptor 6, sequence (P50406 whole entry): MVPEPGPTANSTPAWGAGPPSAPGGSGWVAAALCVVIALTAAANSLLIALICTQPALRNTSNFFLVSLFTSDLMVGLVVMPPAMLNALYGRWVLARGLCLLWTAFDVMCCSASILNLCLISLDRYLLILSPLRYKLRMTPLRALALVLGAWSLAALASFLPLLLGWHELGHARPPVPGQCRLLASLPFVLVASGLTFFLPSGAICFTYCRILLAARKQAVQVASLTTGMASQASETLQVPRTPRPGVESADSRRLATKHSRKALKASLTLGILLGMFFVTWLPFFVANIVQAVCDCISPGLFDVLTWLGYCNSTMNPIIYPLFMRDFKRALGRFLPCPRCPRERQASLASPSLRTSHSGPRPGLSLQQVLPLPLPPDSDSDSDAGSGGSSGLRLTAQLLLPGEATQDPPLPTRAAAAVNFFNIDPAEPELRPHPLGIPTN
T1 sequence (Q92847 whole entry): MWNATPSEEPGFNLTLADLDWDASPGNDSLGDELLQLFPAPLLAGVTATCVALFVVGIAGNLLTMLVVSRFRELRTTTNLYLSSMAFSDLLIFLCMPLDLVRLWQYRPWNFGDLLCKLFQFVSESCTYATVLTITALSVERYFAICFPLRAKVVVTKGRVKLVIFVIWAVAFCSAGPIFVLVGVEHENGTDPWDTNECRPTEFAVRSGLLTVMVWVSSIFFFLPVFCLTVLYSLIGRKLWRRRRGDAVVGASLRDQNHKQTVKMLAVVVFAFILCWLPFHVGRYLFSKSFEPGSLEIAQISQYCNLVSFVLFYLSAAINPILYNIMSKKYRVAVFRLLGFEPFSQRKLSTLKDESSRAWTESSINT
Cytochrome P450 2C9, sequence (P11712 whole entry): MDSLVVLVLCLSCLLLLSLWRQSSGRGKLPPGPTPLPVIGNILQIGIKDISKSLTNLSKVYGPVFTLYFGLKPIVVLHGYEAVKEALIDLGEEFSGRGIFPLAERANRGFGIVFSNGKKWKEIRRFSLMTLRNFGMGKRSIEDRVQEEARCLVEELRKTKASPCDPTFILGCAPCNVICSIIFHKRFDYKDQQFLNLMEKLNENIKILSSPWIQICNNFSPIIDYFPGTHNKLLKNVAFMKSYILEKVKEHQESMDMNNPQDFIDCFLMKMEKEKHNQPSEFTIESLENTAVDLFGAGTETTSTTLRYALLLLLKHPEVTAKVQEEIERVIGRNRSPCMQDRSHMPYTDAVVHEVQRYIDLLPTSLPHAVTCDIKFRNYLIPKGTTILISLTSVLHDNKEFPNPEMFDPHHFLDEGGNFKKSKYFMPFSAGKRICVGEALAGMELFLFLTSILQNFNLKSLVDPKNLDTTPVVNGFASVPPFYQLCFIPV
D(3) dopamine receptor, sequence (P35462 whole entry): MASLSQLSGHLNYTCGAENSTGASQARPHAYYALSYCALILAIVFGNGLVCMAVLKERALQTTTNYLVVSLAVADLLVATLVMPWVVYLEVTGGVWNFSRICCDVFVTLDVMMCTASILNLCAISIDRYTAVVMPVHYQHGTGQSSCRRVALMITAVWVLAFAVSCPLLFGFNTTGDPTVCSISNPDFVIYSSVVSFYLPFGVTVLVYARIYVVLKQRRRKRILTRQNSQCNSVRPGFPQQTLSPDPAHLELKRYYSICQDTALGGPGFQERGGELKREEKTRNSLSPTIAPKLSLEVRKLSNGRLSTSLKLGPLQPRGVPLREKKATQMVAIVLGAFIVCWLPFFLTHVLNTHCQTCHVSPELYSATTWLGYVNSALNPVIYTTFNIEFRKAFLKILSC
D(2) dopamine receptor, sequence (P14416 whole entry): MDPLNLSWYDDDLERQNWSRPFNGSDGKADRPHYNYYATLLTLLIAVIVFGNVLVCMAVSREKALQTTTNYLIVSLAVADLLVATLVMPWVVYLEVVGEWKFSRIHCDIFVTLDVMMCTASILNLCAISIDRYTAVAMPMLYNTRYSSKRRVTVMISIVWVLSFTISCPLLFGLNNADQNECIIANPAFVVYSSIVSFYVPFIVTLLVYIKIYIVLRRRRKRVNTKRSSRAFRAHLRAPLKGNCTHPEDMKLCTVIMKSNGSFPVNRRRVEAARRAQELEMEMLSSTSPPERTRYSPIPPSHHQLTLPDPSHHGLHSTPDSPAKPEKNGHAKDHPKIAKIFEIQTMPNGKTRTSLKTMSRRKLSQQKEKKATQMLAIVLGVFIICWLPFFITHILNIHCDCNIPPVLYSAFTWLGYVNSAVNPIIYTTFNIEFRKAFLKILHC
T2 sequence (P08684 whole entry): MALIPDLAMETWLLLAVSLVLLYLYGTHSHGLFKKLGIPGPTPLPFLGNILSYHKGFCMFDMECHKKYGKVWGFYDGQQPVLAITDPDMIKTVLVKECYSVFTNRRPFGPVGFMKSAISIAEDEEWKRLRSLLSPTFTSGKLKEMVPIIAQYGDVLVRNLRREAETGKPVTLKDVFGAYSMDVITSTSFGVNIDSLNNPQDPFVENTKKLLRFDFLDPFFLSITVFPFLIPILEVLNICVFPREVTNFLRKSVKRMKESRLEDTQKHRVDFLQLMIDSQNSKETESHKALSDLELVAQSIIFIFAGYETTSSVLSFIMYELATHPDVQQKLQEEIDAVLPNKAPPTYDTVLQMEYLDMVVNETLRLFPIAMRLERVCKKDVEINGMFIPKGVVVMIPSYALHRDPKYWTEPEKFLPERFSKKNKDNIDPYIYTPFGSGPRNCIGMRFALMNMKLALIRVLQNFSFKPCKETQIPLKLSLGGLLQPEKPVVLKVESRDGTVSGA
Cytochrome P450 2D6, sequence (P10635 whole entry): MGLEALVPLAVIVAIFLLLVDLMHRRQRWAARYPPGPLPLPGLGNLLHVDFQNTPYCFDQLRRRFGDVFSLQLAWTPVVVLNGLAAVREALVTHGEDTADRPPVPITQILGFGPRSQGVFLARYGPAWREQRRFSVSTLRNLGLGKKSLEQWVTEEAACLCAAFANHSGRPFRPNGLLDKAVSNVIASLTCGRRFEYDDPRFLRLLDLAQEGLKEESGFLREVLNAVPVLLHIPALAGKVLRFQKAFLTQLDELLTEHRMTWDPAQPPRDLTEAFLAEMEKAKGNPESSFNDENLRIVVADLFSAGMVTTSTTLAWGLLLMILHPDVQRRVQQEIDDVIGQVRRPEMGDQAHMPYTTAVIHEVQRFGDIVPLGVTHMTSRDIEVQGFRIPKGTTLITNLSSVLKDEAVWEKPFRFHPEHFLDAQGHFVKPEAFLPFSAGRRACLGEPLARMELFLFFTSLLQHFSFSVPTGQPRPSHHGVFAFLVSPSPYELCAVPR
Motilin receptor, sequence (O43193 whole entry): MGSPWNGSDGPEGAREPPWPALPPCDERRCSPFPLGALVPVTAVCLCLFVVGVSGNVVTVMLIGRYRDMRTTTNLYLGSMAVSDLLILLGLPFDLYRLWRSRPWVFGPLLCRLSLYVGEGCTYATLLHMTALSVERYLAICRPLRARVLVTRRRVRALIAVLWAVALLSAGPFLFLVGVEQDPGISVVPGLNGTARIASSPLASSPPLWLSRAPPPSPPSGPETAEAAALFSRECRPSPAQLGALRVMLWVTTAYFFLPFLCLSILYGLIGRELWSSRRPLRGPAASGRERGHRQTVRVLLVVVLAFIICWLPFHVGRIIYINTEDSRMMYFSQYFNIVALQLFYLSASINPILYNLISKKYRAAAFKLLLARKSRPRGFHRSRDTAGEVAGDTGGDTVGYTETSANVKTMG
Voltage-gated inwardly rectifying potassium channel KCNH2, sequence (Q12809 whole entry): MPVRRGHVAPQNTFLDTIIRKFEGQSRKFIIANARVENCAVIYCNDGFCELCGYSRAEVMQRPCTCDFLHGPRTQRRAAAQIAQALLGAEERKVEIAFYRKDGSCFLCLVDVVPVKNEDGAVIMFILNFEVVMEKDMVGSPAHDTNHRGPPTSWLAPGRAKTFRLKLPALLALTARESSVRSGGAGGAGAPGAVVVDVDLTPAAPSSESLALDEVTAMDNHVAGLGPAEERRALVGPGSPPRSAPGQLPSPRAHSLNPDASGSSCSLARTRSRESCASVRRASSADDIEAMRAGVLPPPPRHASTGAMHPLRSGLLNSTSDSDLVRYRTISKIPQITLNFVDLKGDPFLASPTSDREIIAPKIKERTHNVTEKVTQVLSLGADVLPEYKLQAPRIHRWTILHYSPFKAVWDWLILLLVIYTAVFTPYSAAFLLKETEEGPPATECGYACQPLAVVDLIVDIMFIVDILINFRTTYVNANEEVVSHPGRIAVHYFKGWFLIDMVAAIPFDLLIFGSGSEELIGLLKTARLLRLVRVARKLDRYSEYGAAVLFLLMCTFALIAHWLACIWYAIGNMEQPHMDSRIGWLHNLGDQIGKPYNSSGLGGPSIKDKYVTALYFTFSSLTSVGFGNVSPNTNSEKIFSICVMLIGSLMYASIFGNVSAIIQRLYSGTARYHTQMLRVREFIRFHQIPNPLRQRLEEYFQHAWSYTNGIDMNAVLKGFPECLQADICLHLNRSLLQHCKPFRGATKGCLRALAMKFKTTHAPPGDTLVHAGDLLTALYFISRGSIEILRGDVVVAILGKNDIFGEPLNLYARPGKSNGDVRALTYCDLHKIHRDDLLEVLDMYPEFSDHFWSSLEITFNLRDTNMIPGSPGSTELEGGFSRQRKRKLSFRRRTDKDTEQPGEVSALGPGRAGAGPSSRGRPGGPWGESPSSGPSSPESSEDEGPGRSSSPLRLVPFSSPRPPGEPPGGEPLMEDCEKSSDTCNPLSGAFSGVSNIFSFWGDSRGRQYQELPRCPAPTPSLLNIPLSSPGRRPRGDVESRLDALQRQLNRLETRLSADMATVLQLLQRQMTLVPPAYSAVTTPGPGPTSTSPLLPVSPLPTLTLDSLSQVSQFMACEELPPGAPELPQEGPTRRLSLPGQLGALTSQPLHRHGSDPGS

SMILES	IC50 (Cytochrome P450 2D6) [µM]	EC50 (Motilin receptor) [µM]	EC50 [1] [µM]	also measured
N#Cc1ccc(S(=O)(=O)Nc2ccc3c(c2)CCN(Cc2cc[nH]n2)CC3)cc1	7.9	7.94	–	IC50 (Cytochrome P450 2C9): 2.5 µM
CCCCc1ccc(S(=O)(=O)Nc2ccc3c(c2)CCN(Cc2cc[nH]n2)CC3)cc1	–	–	–	Emax at 1 µM (Stomach [9]): 47%; Intrinsic activity [2]: 0.7
CN(Cc1ccc2c(c1)CCNCC2)C(=O)c1ccc(N2CCOCC2)nc1	–	> 12.6	–	–
O=C(Nc1ccc(N2CCOCC2)nc1)c1ccc2c(c1)CCNCC2	–	> 12.6	–	–
CCCCc1ccc(S(=O)(=O)Nc2ccc3c(c2)CCN(C2CCN(C(C)=O)CC2)CC3)cc1	–	> 2.51	–	–
CCCCc1ccc(S(=O)(=O)N(C)c2ccc3c(c2)CCNCC3)cc1	–	2.51	–	–
CCCCc1ccc(S(=O)(=O)Nc2ccc3c(c2)CCNCC3)cc1	–	1.58	–	–
CCCCc1ccc(S(=O)(=O)Nc2ccc3c(c2)CCN(CC2CCOC2)CC3)cc1 (configuration not stated)	–	2	> 1	–
CCCCc1ccc(S(=O)(=O)Nc2ccc3c(c2)CCN(Cc2cccc(NC(C)=O)c2)CC3)cc1	–	0.501	> 10	–
O=S(=O)(Nc1ccc(N2CCOCC2)nc1)c1ccc2c(c1)CCNCC2	–	2.51	–	–
CCCCc1ccc(S(=O)(=O)Nc2ccc3c(c2)CCN(Cc2ccn[nH]2)CC3)cc1	< 0.1	0.00251	0.0794	IC50 [10]: 2.51 µM; IC50 (Cytochrome P450 2C9): 0.6 µM; IC50 (Cytochrome P450 3A4 [6]): 1.9 µM; IC50 (Cytochrome P450 1A2): 29 µM; Ki (D(3) dopamine receptor): 0.00398 µM; IC50 (Cytochrome P450 2C19): 8.8 µM; IC50 (Cytochrome P450 3A4 [7]): 0.8 µM; solubility [11]: 10 mg/mL (≈ 22.8 mM); Ki (D(2) dopamine receptor): 0.1 µM
O=S(=O)(Cc1ccccc1)Nc1ccc2c(c1)CCN(Cc1ccn[nH]1)CC2	–	2.51	> 1	–
CCCCc1ccc(S(=O)(=O)Nc2ccc3c(c2)CCN(Cc2cccs2)CC3)cc1	–	2.51	> 1	–
CC(C)S(=O)(=O)Nc1ccc2c(c1)CCN(Cc1ccn[nH]1)CC2	16	> 12.6	–	–
CN(C(=O)c1ccc(N2CCOCC2)nc1)c1ccc2c(c1)CCNCC2	–	> 12.6	–	–
CCCCc1ccc(S(=O)(=O)Nc2ccc3c(c2)CCN(Cc2ccccc2)CC3)cc1	–	> 3.16	–	–
Cc1ccc(S(=O)(=O)Nc2ccc3c(c2)CCN(Cc2cc[nH]n2)CC3)cc1Cl	–	–	–	Intrinsic activity [2]: 0.7
CCCCc1ccc(S(=O)(=O)Nc2ccc3c(c2)CCN(C2CCN(C)CC2)CC3)cc1	–	> 12.6	–	–
O=S(=O)(Cc1ccc2c(c1)CCNCC2)c1ccc(Oc2ccc(F)cc2)nc1	1.7	0.501	> 1	–
O=S(=O)(Cc1ccc2c(c1)CCNCC2)c1ccccc1	–	> 12.6	> 10	–
O=S(=O)(Nc1ccc2c(c1)CCNCC2)c1ccc(N2CCOCC2)nc1	–	1.58	–	–
CCCCc1ccc(S(=O)(=O)Nc2ccc3c(c2)CCN(Cc2cncn2C)CC3)cc1	–	3.16	–	–
O=S(=O)(Nc1ccc2c(c1)CCN(Cc1cc[nH]n1)CC2)c1ccc(-c2ccccn2)s1	0.2	0.00794	> 10	IC50 (Cytochrome P450 2C9): 0.4 µM; Emax at 3 µM (Stomach [8]): 190%; Ki (D(3) dopamine receptor): 0.2 µM; Ki [3]: 0.158 µM; Ki (D(2) dopamine receptor): > 0.794 µM
O=C(Nc1ccc2c(c1)CCNCC2)c1ccc(N2CCOCC2)nc1	–	> 12.6	–	–
O=S(=O)(Cc1ccc2c(c1)CCNCC2)c1ccc(N2CCOCC2)nc1	16	0.501	> 1	CL (Liver microsomes [4]): < 1 mL/min/g; CL (Liver microsomes [5]): < 0.5 mL/min/g
O=C(Nc1ccc(F)cc1)c1ccc(S(=O)(=O)Cc2ccc3c(c2)CCNCC3)cn1	–	2	–	–
O=S(=O)(Nc1ccc2c(c1)CCN(Cc1cc[nH]n1)CC2)c1ccc(Cl)cc1	–	0.794	> 10	–
O=S(=O)(Cc1ccc2c(c1)CCNCC2)c1ccc2ccccc2c1	–	1.26	> 10	–
CC(C)(C)c1ccc(S(=O)(=O)Cc2ccc3c(c2)CCNCC3)cc1	–	3.16	> 10	–

Second part, led by results:

IC50 (Cytochrome P450 2D6) [µM]	EC50 (Motilin receptor) [µM]	EC50 [1] [µM]	SMILES	also measured
1.3	0.00398	0.158	CC(C)Oc1ccc(S(=O)(=O)Nc2ccc3c(c2)CCN(Cc2cc[nH]n2)CC3)cc1	Intrinsic activity [2]: 0.6; Ki (D(3) dopamine receptor): 0.02 µM; Ki [3]: 0.2 µM; Ki (D(2) dopamine receptor): 0.631 µM
0.1	0.0251	> 1	O=S(=O)(Cc1ccc2c(c1)CCNCC2)c1ccc(-c2ccc(F)c(F)c2)cc1	CL (Liver microsomes [4]): 1.1 mL/min/g; CL (Liver microsomes [5]): 1 mL/min/g
< 0.1	0.01	1.58	O=S(=O)(Nc1ccc2c(c1)CCN(Cc1cc[nH]n1)CC2)c1ccc(-c2ccccc2)cc1	IC50 (Cytochrome P450 3A4 [6]): < 0.1 µM; Intrinsic activity [2]: 0.7; Ki (D(3) dopamine receptor): 0.0316 µM; IC50 (Cytochrome P450 3A4 [7]): < 0.1 µM; Ki [3]: 0.126 µM; Ki (D(2) dopamine receptor): 0.631 µM
–	0.0501	> 1	CCCCc1ccc(S(=O)(=O)Nc2ccc3c(c2)CCN(Cc2ccc(NC(C)=O)s2)CC3)cc1	–
< 0.1	0.00794	> 1	O=S(=O)(Cc1ccc2c(c1)CCNCC2)c1ccc(-c2ccc(Cl)cc2)nc1	CL (Liver microsomes [4]): < 1 mL/min/g; CL (Liver microsomes [5]): < 1 mL/min/g
0.2	0.0126	> 10	O=S(=O)(Cc1ccc2c(c1)CCNCC2)c1ccc(-c2ccc(F)cc2)cc1	CL (Liver microsomes [4]): < 1 mL/min/g; Emax at 3 µM (Stomach [8]): 166%; CL (Liver microsomes [5]): < 1 mL/min/g
1.6	0.158	> 1	CC(C)Oc1ccc(S(=O)(=O)Cc2ccc3c(c2)CCNCC3)cn1	–
–	0.00316	0.00398	CCCCc1ccc(S(=O)(=O)Nc2ccc3c(c2)CCN(Cc2[nH]cnc2C)CC3)cc1	Intrinsic activity [2]: 0.6
–	0.0631	0.02	CCCCc1ccc(S(=O)(=O)Nc2ccc3c(c2)CCN(Cc2cnc(C)[nH]2)CC3)cc1	Intrinsic activity [2]: 0.5
–	0.126	–	CCCCc1ccc(S(=O)(=O)Cc2ccc3c(c2)CCNCC3)cc1	–
–	0.0398	> 1	CC(C)COc1ccc(S(=O)(=O)Cc2ccc3c(c2)CCNCC3)cn1	–
–	0.158	> 1	N#Cc1ccc(-c2ccc(S(=O)(=O)Cc3ccc4c(c3)CCNCC4)cn2)cc1	–
–	0.0316	> 10	CN1CCOc2cc(S(=O)(=O)Nc3ccc4c(c3)CCN(Cc3cc[nH]n3)CC4)ccc21	Ki (D(3) dopamine receptor): 0.631 µM; Ki [3]: 0.0158 µM; Ki (D(2) dopamine receptor): > 1 µM
1.1	0.0631	> 1	O=S(=O)(Cc1ccc2c(c1)CCNCC2)c1ccc(N2CCCCC2)nc1	–
0.3	0.02	> 1	O=S(=O)(Cc1ccc2c(c1)CCNCC2)c1ccc(Nc2ccc(F)cc2)nc1	CL (Liver microsomes [4]): < 0.5 mL/min/g; CL (Liver microsomes [5]): < 1 mL/min/g
0.6	0.00501	> 1	O=S(=O)(Cc1ccc2c(c1)CCNCC2)c1ccc(-c2ccc(F)cc2)nc1	CL (Liver microsomes [4]): < 0.5 mL/min/g; Emax at 1 µM (Stomach [9]): 54%; CL (Liver microsomes [5]): < 1 mL/min/g
–	0.0398	0.0794	Cc1ccc(S(=O)(=O)Nc2ccc3c(c2)CCN(Cc2ccn[nH]2)CC3)cc1Cl	Ki (D(3) dopamine receptor): 0.1 µM; Ki [3]: 0.00631 µM; Ki (D(2) dopamine receptor): 0.398 µM
< 0.1	0.02	> 10	O=S(=O)(Cc1ccc2c(c1)CCNCC2)c1ccc(-c2ccc(Cl)cc2)cc1	CL (Liver microsomes [4]): < 0.5 mL/min/g; CL (Liver microsomes [5]): < 1 mL/min/g
–	0.00794	0.00398	CCCCc1ccc(S(=O)(=O)Nc2ccc3c(c2)CCN(Cc2cnc[nH]2)CC3)cc1	Intrinsic activity [2]: 0.4
–	0.2	> 1	CCCCc1ccc(S(=O)(=O)Nc2ccc3c(c2)CCN(C2CCCC2)CC3)cc1	–
< 1	0.00631	> 1	O=S(=O)(Nc1ccc2c(c1)CCN(Cc1cc[nH]n1)CC2)c1ccc(N2CCOCC2)nc1	IC50 [10]: > 15.8 µM; Tmax [12]: 2 h; CL (Liver microsomes [4]): 3.8 mL/min/g; IC50 (Cytochrome P450 3A4 [6]): > 8 µM; IC50 (Cytochrome P450 1A2): > 8 µM; Cmax [13]: 0.273 µg/mL; Ki (D(3) dopamine receptor): 0.631 µM; IC50 (Cytochrome P450 2C19): > 8 µM; IC50 (Cytochrome P450 3A4 [7]): > 8 µM; Ki [3]: 0.631 µM; solubility [11]: 0.371 mg/mL (≈ 0.792 mM); half-life [14]: 1.5 h; CL (Liver microsomes [5]): 6.6 mL/min/g; Ki (D(2) dopamine receptor): > 3.16 µM
0.5	0.00501	0.631	CC1(C)CCc2cc(S(=O)(=O)Nc3ccc4c(c3)CCN(Cc3cc[nH]n3)CC4)ccc2O1	–
